As a reminder, the melting point is the temperature of the solid-liquid transition. By IC50 is commonly meant the concentration that inhibits the measured activity by half. Low readings indicate greater potency, high ones weaker potency.

One series deals with PDE7. Briefly: PDE7 Assay Procedure ([3H]-cAMP SPA). The settings on record: PDE7 inhibition, 15 nM 3',5'[3H]-cAMP, 1 hour at room temperature. The format is biochemical. The protocol: All compounds are resuspended in DMSO at a stock concentration of 10 mM. […] All dilutions are performed in 96 well plates.
For each reaction, 10 microliters of the diluted compounds are poured into “low binding” assay plates. 80 microliters of a reaction mixture containing 50 mM Tris pH 7.5, 8.3 mM MgCl2, 1.7 mM EGTA, and 15 nM 3′,5′[3H]-cAMP (around 150000 dpm) are added to each well. The reaction is initiated by adding 10 microliters of a solution containing PDE7 to the reaction mixture. The plate is then incubated under stirring for 1 hour at room temperature. After incubation the reaction is stopped with 50 microlitres (0.89 mg) of PDE SPA beads (Amersham Pharmacia Biotech RPNQ0150), and the resulting mixture is allowed to settle for 20 minutes before counting in a microtitre plate counter.

Compound `COc1ccc(-c2nc(N3CCOCC3)c3c(C)c(C#N)sc3n2)cc1OC` [Example 31, 2-(3,4-Dimethoxyphenyl)-5-methyl-4-morpholin-4-ylthieno[2,3-d]pyrimidine-6-carbonitrile] showed a melting point of 194 to 196 °C. The compound also came in with an IC50 in the series with PDE7 of less than 1 µM.

Turning to `COc1cc(-c2nc(NCC(C)C)c3c(C)c(C#N)sc3n2)cc(OC)c1OC` [Example 72, 4-(Isobutylamino)-5-methyl-2-(3,4,5-trimethoxyphenyl)thieno[2,3-d]pyrimidine-6-carbonitrile], the melting point fell in the range of 182 to 184 °C.

For the compound `COc1ccc(-c2nc(N(C)C)c3c(C)c(C#N)sc3n2)cc1` [Example 21, 4-(Dimethylamino)-2-(4-methoxyphenyl)-5-methylthieno[2,3-d]pyrimidine-6-carbonitrile], the melting point is 123 to 125 °C.

Take `COc1cc(Cc2nc(NC(C)C)c3c(C)c(C#N)sc3n2)cc(OC)c1OC` [Example 113, 4-(Isopropylamino)-5-methyl-2-(3,4,5-trimethoxybenzyl)thieno[2,3-d]pyrimidine-6-carbonitrile]: the melting point lay within 143 to 147 °C.

The compound `COc1cc(-c2nc(NCCC(=O)O)c3c(C)c(C#N)sc3n2)cc(OC)c1OC` [Example 87, N-[6-Cyano-5-methyl-2-(3,4,5-trimethoxyphenyl)thieno[2,3-d]pyrimidin-4-yl]-beta-alanine] registered a melting point of 222 to 225 °C.

As to `COc1ccc(-c2nc(N3CCCCC3)c3c(C)c(C#N)sc3n2)cc1` [Example 6, 2-(4-Methoxyphenyl)-5-methyl-4-piperidin-1-ylthieno[2,3-d]pyrimidine-6-carbonitrile], the melting point lay within 202 to 204 °C.

On to `CCN(CC)c1nc(-c2ccncc2)nc2sc(C#N)c(C)c12` [Example 45, 4-(Diethylamino)-5-methyl-2-pyridin-4-ylthieno[2,3-d]pyrimidine-6-carbonitrile], for which the melting point lay within 169 to 171 °C.

`Cc1c(C#N)sc2nc(-c3ccccc3)nc(N3CCCCC3)c12` [Example 4, 5-Methyl-2-phenyl-4-piperidin-1-ylthieno[2,3-d]pyrimidine-6-carbonitrile] gave a melting point of 142 to 144 °C.

For the compound `Cc1c(C#N)sc2nc(-c3ccc(Cl)cc3)nc(N3CCN(C)CC3)c12` [Example 15, 2-(4-Chlorophenyl)-5-methyl-4-(4-methylpiperazin-1-yl)thieno[2,3-d]pyrimidine-6-carbonitrile], the melting point lay in the range of 209 to 210 °C.

As to `CCCNc1nc(-c2ccc(OC)c(OC)c2)nc2sc(C#N)c(C)c12` [Example 47, 2-(3,4-Dimethoxyphenyl)-5-methyl-4-(propylamino)thieno[2,3-d]pyrimidine-6-carbonitrile], the melting point lay in the range of 179 to 181 °C.

Compound `Cc1c(C#N)sc2nc(-c3ccc(C(F)(F)F)cc3)nc(N3CCN(C)CC3)c12` [Example 33, 5-Methyl-4-(4-methylpiperazin-1-yl)-2-[4-(trifluoromethyl)phenyl]thieno[2,3-d]pyrimidine-6-carbonitrile] showed a melting point of 187 to 189 °C.

Turning to `COc1ccc(Cc2nc(N(C)CCO)c3c(C)c(C#N)sc3n2)cc1OC` [Example 105, 2-(3,4-Dimethoxybenzyl)-4-[(2-hydroxyethyl)(methyl)amino]-5-methylthieno[2,3-d]pyrimidine-6-carbonitrile], the melting point lay within 62 to 63 °C.

Compound `CCN(CC)c1nc(-c2ccc3c(c2)OCO3)nc2sc(C#N)c(C)c12` [Example 36, 2-(1,3-Benzodioxol-5-yl)-4-(diethylamino)-5-methylthieno[2,3-d]pyrimidine-6-carbonitrile] registered a melting point of 199 to 201 °C.

The compound `CCNc1nc(Cc2ccc(OC)c(OC)c2)nc2sc(C#N)c(C)c12` [Example 95, 2-(3,4-Dimethoxybenzyl)-4-(ethylamino)-5-methylthieno[2,3-d]pyrimidine-6-carbonitrile] yielded a melting point of 125 to 126 °C.

`CCN(C)c1nc(-c2cc(OC)cc(OC)c2)nc2sc(C#N)c(C)c12` [Example 55, 2-(3,5-Dimethoxy-phenyl)-4-(ethyl-methyl-amino)-5-methyl-thieno[2,3-d]pyrimidine-6-carbonitrile] registered a melting point of 145 to 148 °C.

With `CCN1CCN(c2nc(-c3ccccc3)nc3sc(C#N)c(C)c23)CC1` [Example 1, 4-(4-Ethylpiperazin-1-yl)-5-methyl-2-phenylthieno[2,3-d]pyrimidine-6-carbonitrile], the melting point is 178 to 179 °C.

For `COc1ccc(-c2nc(N3CCNCC3)c3c(C)c(C#N)sc3n2)cc1` [Example 12, 2-(4-Methoxyphenyl)-5-methyl-4-piperazin-1-ylthieno[2,3-d]pyrimidine-6-carbonitrile], the melting point was in the range of 210 to 212 °C.

Turning to `COCCNc1nc(Cc2ccc(OC)c(OC)c2)nc2sc(C#N)c(C)c12` [Example 106, 2-(3,4-Dimethoxybenzyl)-4-[(2-methoxyethyl)amino]-5-methylthieno[2,3-d]pyrimidine-6-carbonitrile], the melting point lay in the range of 94 to 97 °C.

`CCN(CC)c1nc(-c2ccc(OC)cc2)nc2sc(C#N)c(C)c12` [Example 10, 4-(Diethylamino)-2-(4-methoxyphenyl)-5-methylthieno[2,3-d]pyrimidine-6-carbonitrile] returned a melting point of 154 to 156 °C.

For `CCN(C)c1nc(-c2cc(OC)c(OC)c(OC)c2)nc2sc(C#N)c(C)c12` [Example 39, 4-[Ethyl(methyl)amino]-5-methyl-2-(3,4,5-trimethoxyphenyl)thieno[2,3-d]pyrimidine-6-carbonitrile], the melting point was 163 to 164 °C.

For the compound `COc1cc(-c2nc(N(C)CCN)c3c(C)c(C#N)sc3n2)cc(OC)c1OC` [Example 86, 4-[(2-Aminoethyl)(methyl)amino]-5-methyl-2-(3,4,5-trimethoxyphenyl)thieno[2,3-d]pyrimidine-6-carbonitrile], the melting point is greater than 290 °C.

`C=CCN(C)c1nc(-c2ccc(OC)cc2)nc2sc(C#N)c(C)c12` [Example 29, 4-[Allyl(methyl)amino]-2-(4-methoxyphenyl)-5-methylthieno[2,3-d]pyrimidine-6-carbonitrile] had a melting point of 126 to 128 °C.

`CCNc1nc(Cc2cc(OC)c(OC)c(OC)c2)nc2sc(C#N)c(C)c12` [Example 111, 4-(Ethylamino)-5-methyl-2-(3,4,5-trimethoxybenzyl)thieno[2,3-d]pyrimidine-6-carbonitrile] had a melting point of 164 to 165 °C.

Compound `Cc1c(C#N)sc2nc(-c3ccc4c(c3)OCO4)nc(N(C)CCO)c12` [Example 43, 2-(1,3-Benzodioxol-5-yl)-4-[(2-hydroxyethyl)(methyl)amino]-5-methylthieno[2,3-d]pyrimidine-6-carbonitrile] gave a melting point of 195 to 197 °C.

Regarding `Cc1c(C#N)sc2nc(-c3ccc([N+](=O)[O-])cc3)nc(N3CCNCC3)c12` [Example 13, 5-Methyl-2-(4-nitrophenyl)-4-piperazin-1-ylthieno[2,3-d]pyrimidine-6-carbonitrile], the melting point is 250 °C.

The record behind these values is patent US7662814B2, “4-aminothieno[2,3-d]pyrimidine-6-carbonitrile derivatives as PDE7 inhibitors” (Laboratorios Almirall, S.A., priority 2003, dated 2010).
